These results are taken from US20220170028A1, “NOVEL INTERLEUKIN-2 VARIANTS AND BIFUNCTIONAL FUSION MOLECULES THEREOF” (Cugene Inc, priority 2019, published 2022).

The subject of series [1] is Treg cells. Description: Treg proliferation and expansion in mice after a single subcutaneous injection (Example 9). The format is in vivo, mouse. To be noted: 0.3 mg/kg single s.c., C57/BL6 mice; for stimulation of Treg cell proliferation and expansion in vivo (in words): days 3, 5, 7. The protocol: (§1) IL-2 variant Fc fusion proteins were administered to mice and their ability to preferentially proliferate and expand regulatory T cells (CD4+CD25+FoxP3+ T cells) over effector T cells and NK cells were determined in vivo.
(§2) Female C57/BL6 mice (7-week old) were received from Charles River Laboratory and acclimated in house for at least 7 days before the study. Vehicle (PBS), 0.3 mg/kg of each test compounds, or IL-2 benchmark compounds were subcutaneously administered to mice on day 0. Peripheral blood samples were collected into heparin-treated tubes on days 3, 5 and 7 post-treatment. Each group contained 6 mice and baseline blood was collected 2 days prior to the treatment (day −2). After red blood cell lysis, total viable mononuclear blood cells were counted by trypan blue dead cell exclusion method and proceeded to intracellular staining for immune cell phenotype and Ki67 proliferation markers using flow cytometric analysis. Cells were stained separately with two panels of antibodies as listed: 1) anti-mouse Foxp3-FITC, Ki67-PE, anti-mouse CD25-APC and anti-mouse CD4-Percpcy5.5 (1:50 dilution) for CD4+T-regulatory cells (Treg); 2) anti-mouse CD3-FITC, Ki67-PE, anti-mouse CD335-APC and anti-mouse CD8-Percpcy5.5 (1:50 dilution) for CD8+T and NK cells.

The subject of series [2] is CD4+ Tconv cells, CD8 T cells and NK cells. The series can be described thus: Effector T cell and NK cell proliferation and expansion in mice after a single subcutaneous injection (Example 9). To be noted: 0.3 mg/kg single s.c., C57/BL6 mice. The format is in vivo, mouse. The protocol: as §1, §2
Series [3] has as its system KLH-induced DTH in Balb/C mice. The series can be described thus: KLH-induced delayed-type hypersensitivity (DTH) mouse model, ear thickness. The format is in vivo. The note with it: 72 hours after KLH challenge, 4 consecutive daily dosing at 5 mg/kg i.p. The protocol:
The ability of Treg cells induced by IL-2 variants to suppress T cell antigen-driven inflammation in vivo was assessed in a model of delayed-type hypersensitivity (DTH). Female Balb/C mice (7-week old) were acclimated in house for 7 days and randomized into groups. Subcutaneous administration of vehicle (PBS), P-0511 at either 0.1 mg/kg or 0.3 mg/kg was initiated on day −2 and was given either once every 3 days (Q3D) for three injections or once every 5 days (Q5D) for two injections. Mice were then sensitized with a subcutaneous administration of 100 μg keyhole limpet hemocyanin (KLH) in 200 μl saline on day 0. For Q3D dosing, two more subcutaneous injections of PBS or P-0511 (0.1 or 0.3 mg/kg) were administered on days 1, and 4; for Q5D dosing, one additional s.c. injection of PBS, 0.1 or 0.3 mg/kg P-0511 was administered on day 3. Mice received an intradermal challenge of KLH (5 μg in 10 μl saline) in right ear on day 5. Right ear thickness was measured using a caliper on day 5 prior KLH challenge and daily from day 6 to day 9 corresponding to 24 h, 48 h, 72 h and 96 h post KLH challenge. One group of mice also received 5 mg/kg daily i.p. treatment of dexamethasone from day 5 to day 8 as a positive control.
Kinetics of the DTH response using the change in ear thickness relative to baseline values (Δ ear thickness) at various times after KLH challenge was illustrated in FIG. 23.

Series [4] in a line: Aggregate content by size-exclusion chromatography after Protein A purification. It is filed as physicochemical. The note with it: for Aggregation % (SEC): after MabSelectSure. The protocol: For affinity chromatography each supernatant was loaded on a HiTrap MabSelectSure column (CV=5 mL, GE Healthcare) equilibrated with 25 ml phosphate buffered saline, pH 7.2 (ThermoFisher). Unbound protein was removed by washing with 5 column volumes PBS, pH 7.2 and target protein was eluted with 25 mM sodium citrate, 25 mM sodium chloride, pH 3.2. Protein solution was neutralized by adding 3% of 1 M Tris pH 10.2. Ion exchange chromatography or mix-mode chromatography, including but not limited to CaptoMMC (GE Healthcare), ceramic hydroxyapatite, or ceramic fluoroapatite (Bio-Rad) was also utilized to polish the Protein A material as needed. Target protein was concentrated with an Amicon®Ultra-15 concentrator 10 KDa NMWC (Merck Millipore Ltd.)
The purity and molecular weight of the purified constructs were analyzed by SDS-PAGE with and in the absence of a reducing agent and staining with Coomassie (Imperial® Stain). The NuPAGE® Pre-Cast gel system (4-12% or 8-16% Bis-Tris, ThermoFisher) was used according to the manufacturer's instructions. The protein concentration of purified protein samples was determined by measuring the UV absorbance at 280 nm (Nanodrop Spectrophotometer, ThermoFisher) divided by the molar extinction coefficient calculated on the basis of the amino acid sequence. The aggregate content of the constructs was analyzed on an Agilent 1200 high-performance liquid chromatography (HPLC) system. Samples were injected onto an AdvanceBio size-exclusion column (300 Å, 4.6×150 mm, 2.7 μm, LC column, Agilent) using 150 mM sodium phosphate, pH 7.0 as the mobile phase at 25° C.
(§3) S125I substitution was thus introduced into a number of IL-2 variant Fc fusion molecules. The constructs harboring Ile-125 substitution in IL-2 were expressed using the same vector and in the same culturing conditions as their Ser-125 counterparts and purified using MabSelectSure. The expression level in mg/L and purity assessed by SEC chromatography in aggregation % of exemplary molecules are summarized in Table 6. The two molecules in the same row of Table 6 share the same other amino acid substitution(s) and differ only at residue 125 with either serine or isoleucine. As an example, the SEC chromatogram and SDS-PAGE pictures of P-0447 (SEQ ID NO: 173) and its Ile-125 counterpart P-0511 (SEQ ID NO: 213) were further illustrated in FIGS. 1D and 1E.
(Size exclusion chromatography separates by hydrodynamic size, large species first.)

Series [5] is described as follows: Transient expression level of IL-2 Fc fusion constructs in HEK-293F cells. The protocol:
The constructs were produced by co-transfecting HEK293-F cells growing in suspension with the mammalian expression vectors using polyethylenimine (PEI, 25,000 MW linear, Polysciences). If there were two or more expression vectors, the vectors were transfected in a 1:1 ratio. For transfection, HEK293 cells were cultivated in serum free FreeStyle™ 293 Expression Medium (ThermoFisher). For production in 1000 ml shaking flasks (working volume 330 mL), HEK293 cells were seeded at a density of 0.8×10^6 cells/ml 24 hours before transfection. A total of 330 μg of DNA expression vectors were mixed with 16.7 ml Opti-mem Medium (ThermoFisher). After addition of 0.33 mg PEI diluted in 16.7 ml Opti-mem Medium, the mixture was vortexed for 15 sec and subsequently incubated for 10 min at room temperature. The DNA/PEI solution was then added to the cells and incubated at 37° C. in an incubator with 8% CO2. Sodium butyrate (Millipore Sigma) was added to the cells at day 4 at a final concentration of […] to help sustain protein expression. After 6 days cultivation, supernatant was collected for purification by centrifugation for 20 min at 2200 rpm. The solution was sterile filtered (0.22 μm filter, Corning). The secreted protein was purified from cell culture supernatants using Protein A affinity chromatography.
as §3

In series [6] the test system is STAT5 phosphorylation in CD4+ Treg cells. The series can be described thus: STAT5 phosphorylation in CD4+ Treg cells, human PBMC assay by FACS. The format is cell-based. The text has this:
(§4) Single amino acid substitutions were introduced to IL-2 at positions corresponding to amino acids interacting with receptor subunit(s) β or γ or βγ. These substitutions were aimed to reduce IL-2 signaling capacity through the intermediate affinity IL-2Rβγ complex and confer signaling specificity from the high affinity IL-2Rαβγ. IL-2 variants containing single amino acid substitutions were examined for their ability to differentially stimulate STAT5 phosphorylation in CD4 positive Treg and Tconv cells. STAT5 is known to be involved in the downstream signaling cascade upon IL-2 binding to the transmembrane IL-2 receptors. The phosphorylation of STAT5 in defined lymphocyte subpopulations was measured using fresh human peripheral blood mononuclear cells (PBMC) and the forkhead transcription factor FOXP3 was used to identify the Treg population in FACS analysis.
(§5) Briefly, human PBMC were isolated by Ficoll-Hypaque centrifugation from the buffy coat of a healthy donor. PBMC were starved in serum-free MACS buffer at 4° C. for 1 hour. 2×10^5 PBMC were then treated with serial dilutions of test compounds for 30 min at 37° C. Cells were fixed and permeabilized with Foxp3/Transcription Factor Staining Buffer Set (EBIO) by incubating with 1× Foxp3 fixation/permeabilization working solution for 30 minutes and washing with 1× permeabilization buffer. Cells were additionally fixed with Cytofix buffer and permeabilized with Perm Buffer III (BD Biosciences) and then washed. After blocking Fc receptors by adding human TruStain FcX (1:50 dilution), cells were stained with a mixture of anti-CD25-PE, anti-FOXP3-APC, anti-pSTAT5-FITC, and anti-CD4-PerCP-Cy5.5 antibodies at concentrations recommended by the manufacturer for 45 minutes at room temperature. Cells were collected by centrifugation, washed, resuspended in FACS buffer, and analyzed by flow cytometry. The flow cytometry data was gated into CD4+/Foxp3+/CD25^high and CD4+/Foxp3−/CD25^low groups for the Treg and CD4 conventional T cell subsets, respectively. Data are expressed as a percent of pStat5 positive cells in gated population.
Background: Flow cytometry measures light scatter and fluorescence of single cells or particles in a stream.

The test system of series [7] is CD4+ Treg vs CD4+ Tconv cells. The series can be described thus: STAT5 phosphorylation, selectivity / activity profile Treg versus CD4+ Tconv cells, human PBMC. The format is cell-based.
Description: as §4, §5
The S125I substitution was then introduced into wild-type IL-2 or IL-2 variants that already harbored 1 or 2 mutations targeting receptor subunit(s) β or γ or βγ. The resulting IL-2 variants containing isoleucine at position 125 were tested for their ability to stimulate STAT5 phosphorylation in Treg and Tconv cells in comparison with their respective serine counterparts at position 125. Table 7 lists the potency and selectivity of IL-2 variants in Treg cells. The two molecules in the same row of Table 7 share the same other amino acid substitution(s) and differ only at position 125 with either serine or isoleucine.

In series [8] the test system is Treg cells. The series can be described thus: Treg pharmacodynamics in mice after repeated administration Q3D (Example 11). The format is in vivo, mouse. The note with it: after three consecutive Q3D treatments, 0.3 mg/kg s.c. The protocol:
Female Balb/C mice (7-week old) were acclimated in house for 5-7 days before the study. Vehicle (PBS), 0.3 mg/kg of P-0511, P-0512, P-0531, or Benchmark-1 compound were subcutaneously administered to mice (n=5/group) on days 0, 3, and 6. On days 3 and 9, three days after the first injection and multiple (3) injections, respectively, peripheral blood was collected. Based on earlier in vivo experiments, Treg cell activation, proliferation, and expansion were expected to peak on day 3, and thus three days post injection was selected for data collection and analysis. Changes in blood lymphocyte activation, proliferation, and expansion were measured by flow cytometry. P-0531 is the S125I equivalent of the wild type IL-2 fusion protein. The Benchmark-1 contains V91K mutation.

Series [9] deals with STAT5 phosphorylation in CD4+ Tconv cells. Description: STAT5 phosphorylation in CD4+ Tconv cells, human PBMC assay by FACS. The format is cell-based.
Description: as §4, §5

Regarding “P-0514: IL-2 L19Q/S125I/Q126E Fc fusion, SEQ ID NO: 216”, in the series on Treg cells [1] (all measured time points), the “Treg/Tconv ratio (Ki67 stimulation and cell counts)” value is “most beneficial Treg/Tconv ratio”. Besides, the “stimulation of Treg cell proliferation and expansion in vivo (in words)” value with Treg cells [1] is listed as “stronger in vivo efficacy”. The “expansion of CD4+ Tconv cells, CD8 T cells or NK cells in vivo” value in series [2] is given as “No significant expansion”.

For the molecule “Benchmark-3: benchmark Fc-IL-2 variant fusion protein containing N88D, SEQ ID NO: 199 [reference compound]”, the “stimulation of Treg cell proliferation and expansion in vivo (in words)” value in the series on Treg cells [1] is reported as “not efficacious”. Moreover, in [2], the “Ki67 stimulation on CD8 T cells and NK cells in vivo (in words)” value is reported as “low effects”.

Turning to `C[C@@H]1C[C@H]2[C@@H]3CCC4=CC(=O)C=C[C@]4(C)[C@@]3(F)[C@@H](O)C[C@]2(C)[C@@]1(O)C(=O)CO` [dexamethasone, reference compound], the “inhibition of KLH-induced inflammatory response” value in series [3] was about 85%.

For “P-0531: IL-2 S125I Fc fusion, S125I equivalent of wild type, SEQ ID NO: 167”, in series [4] (Isoleucine-125 constructs), the “Aggregation % (SEC)” value is recorded as 0.7%. Moreover, the “Expression” value in series [5] (Isoleucine-125 constructs) was found to be 29.5 mg/L. Also, the “STAT5 phosphorylation activity in Treg cells (in words)” value in series [6] is reported as “slightly increased potency”. For the same molecule, the “activity profile / selectivity window Treg over CD4+ Tconv (in words)” value in series [7] was “without altering Treg selectivity”. In series [7] (Isoleucine-125 constructs), the “Treg Selectivity” value is listed as “Yes”. Moreover, in the series on Treg cells [8], the “% Treg over total CD4 T cells or over total lymphocytes” value was “declined drastically to near control levels”.

“P-0372: IL-2 L19Y Fc fusion, SEQ ID NO: 81”: in series [4] (Example 4), the “aggregates / high-molecular weight species (SEC)” value is listed as 21.7%. In addition, the “Aggregation % (SEC)” value in series [4] (Serine-125 constructs) was 21.7%. In addition, in series [5] (Serine-125 constructs), the “Expression” value was 4.0 mg/L. For the same molecule, the “expression level (titer)” value in [5] (transiently in HEK-293F cells, Example 4) was 4.0 mg/L. In addition, in series [6], the “STAT5 phosphorylation activity in Treg cells (in words)” value is reported as “minimally impacted the pSTAT5 activation potency”. Also, the “STAT5 phosphorylation activity in CD4+ Tconv cells (in words)” value in series [9] is given as “largely retained the biological activity”. Moreover, in [7], the “activity profile / selectivity window Treg over CD4+ Tconv (in words)” value was “modestly improved selective window”. The “Treg Selectivity” value in [7] (Serine-125 constructs) is reported as “Yes”.
